{
  "source": "patent US20260166051A1",
  "about": "“COMPOUNDS AND METHODS FOR TREATING CANCER” (The Regents of the University of California, priority 2022, published 2026)",
  "key": {"[1]": {"tested_on": "patient-derived glioma cells", "test": "Secondary screening: self-renewal in patient-derived glioma cells", "assay_type": "cell-based, human", "settings": "patient-derived glioma cells (GBM)", "protocol": "(§1) Cells were seeded under serum-free conditions into untreated plates in DMEM/F12 media, supplemented with 10 ml/500 mL of B27 (Invitrogen), 0.145 U/ml recombinant insulin (Eli Lilly, Indiana), 0.68 U/mL heparin (Fresenius Kabi, Illinois), 20 ng/ml fibroblast growth factor 2 (bFGF, Sigma) and 20 ng/ml epidermal growth factor (EGF, Sigma). After 10 days in culture, spheres formed from singles cells were counted. Certain compounds tested in sphere-forming assay according to the present disclosure are shown below. Results are shown in FIGS. 6, 7, 8, 9-19, 26, 33-37."}, "[2]": {"test": "In vivo BBB penetration of compound 2", "settings": "mice"}, "[3]": {"tested_on": "HK-374 glioma stem cells", "test": "Sphere-forming assay: self-renewal of HK-374 glioma stem cells", "assay_type": "cell-based, human", "settings": "n=3", "source_text": "FIG. 42. Inhibition of self-renewal of HK-374 glioma stem cells in the absence of radiation.\nFIG. 43. Inhibition of self-renewal of HK-374 glioma stem cells in combination with 4 Gy.\nPrimary human glioma cell lines were established at UCLA as described (Hemmati et al., PNAS 2003; Characteristics of specific gliomasphere lines can be found in Laks et al., Neuro-Oncology 2016). Primary glioblastoma cells were propagated as gliomaspheres in serum-free conditions in T25 flasks in DMEM/F12, supplemented with B27, EGF, bFGF and heparin as described previously (Vlashi et al., Journal of the NCI, 2009, 101, 350-9). All cells were grown in a humidified atmosphere at 37° C. with 5% CO2. The unique identity of all patient-derived specimen was confirmed by DNA fingerprinting (Laragen, Culver City, CA). All lines were routinely tested for mycoplasma infection (MycoAlert, Lonza). […]\nas §1, with “Certain compounds tested in sphere-forming assay according to the present disclosure are shown below. Results are shown in FIGS. 6, 7, 8, 9-19, 26, 33-37.” left out"}, "[4]": {"tested_on": "normal tissue cell lines", "test": "Toxicity in normal tissue cell lines (NIH3T3 fibroblasts, EOC20 microglia, human astrocytes, murine neural stem/progenitor cells)", "assay_type": "cell-based", "settings": "alone or in combination with radiation", "source_text": "FIGS. 5A-D. Toxicity of the analogs MXC017, 079 and 021 in fibroblasts (NIH3T3, FIG. 5A), microglia cells (EOC20, FIG. 5B), human astrocytes (FIG. 5C) or murine neural stem/progenitor cells (FIG. 5D).\n(§2) Compound 2 was identified in an unbiased phenotypic screen and MCX analogs were synthesized without knowledge of the actual molecular target. […] Western blotting confirmed inhibition of the downstream targets with downregulation of p-Erk, p-Akt and upregulation of cytosolic beta-catenin (FIG. 4)."}, "[5]": {"test": "Histology of major organs (kidneys, lung, spleen, heart, liver)", "assay_type": "in vivo, mice", "settings": "50 mg/kg, 2 weeks, 5 days on, 2 days off"}, "[6]": {"tested_on": "non-stem glioblastoma cells", "test": "Reprogramming assay (phenotype conversion, ZsGreen-cODC reporter, flow cytometry)", "assay_type": "cell-based, human", "settings": "spontaneous and radiation-induced", "protocol": "Primary glioblastoma cells were engineered to express a fusion protein of ZsGreen and the C-terminal degron of ornithine decarboxylase. This construct reports for lack of 26S proteasome activity and cells with low proteasome activity are enriched for cells with tumor-initiating properties. For reprogramming experiments, cells with low proteasome activity (ZsGreen-positive) were removed by FACS. ZsGreen-negative cells were treated and 5 days later the number of radiation-induced ZsGreen-positive cells was assessed by flow cytometry."}, "[7]": {"tested_on": "p-AKT", "test": "Western blotting of patient-derived glioblastoma cells", "assay_type": "cell-based, human", "settings": "Western blot", "source_text": "as §2"}, "[8]": {"tested_on": "p-ERK", "test": "Western blotting of patient-derived glioblastoma cells", "assay_type": "cell-based, human", "settings": "Western blot", "source_text": "as §2"}, "[9]": {"tested_on": "cytosolic beta-catenin", "test": "Western blotting of patient-derived glioblastoma cells", "assay_type": "cell-based, human", "settings": "Western blot", "source_text": "as §2"}, "[10]": {"tested_on": "PDOX models of GBM", "test": "Survival in PDOX models of GBM", "assay_type": "in vivo, mice"}, "[11]": {"test": "Tolerability and body weight in mice", "assay_type": "in vivo, NSG mice"}, "[12]": {"test": "PK study, plasma and brain concentration by mass spectrometry", "assay_type": "in vivo", "settings": "mice; for Kp: mouse, brain/plasma, 50 mg/kg", "protocol": "FIGS. 38A and 38B. PK studies for MXC-017 and MXC-079 Mice were treated with a single dose of the novel compounds at 50 mg/kg. Plasma and brain samples were taken at indicated time points and compound concentration measured by mass spectrometry.\n(§3) After two weeks of treatment the tumors were harvested, processed into single cells and the number of glioma cells with sphere-forming capacity (glioma stem cells) was determined in a functional assay (extreme limiting dilution assay). […] (FIG. 40A)."}, "[13]": {"tested_on": "Olig2-positive oligodendrocytes", "test": "Immunofluorescent staining of brains of glioma bearing mice", "assay_type": "in vivo", "settings": "combined treatment with radiation and MXC-017", "source_text": "(§4) FIGS. 41A-B. Immunofluorescent staining of brains of glioma bearing mice using antibodies against Olig2 and Nestin. Combined treatment with radiation and MXC-017 eliminated Nestin-positive glioma stem cells in the tumors while not effecting the sensitive normal tissue cell population of Olig2-positive oligodendrocytes in the brain. Nuclei were counterstained."}, "[14]": {"tested_on": "Nestin-positive glioma stem cells", "test": "Immunofluorescent staining of brains of glioma bearing mice", "assay_type": "in vivo", "settings": "combined treatment with radiation and MXC-017", "source_text": "as §4"}, "[15]": {"tested_on": "HK374 cells", "test": "In vivo treatment of HK374 tumors, then in vitro extreme limiting dilution assay", "set-up": "species or system NSG mice", "protocol": "FIGS. 39A-D. FIG. 39A NSG mice were injected with HK374 cells. After 2 weeks post grafting, mice received a single dose of 10 Gy and 5 daily injections/week of MXC-017 or saline for 2 weeks. Tumors were harvested and an in vitro extreme limiting dilution assay was performed. […] FIG. 39D Elimination of GSCs was reflected by the complete loss of cells with self-renewing capacity.\nas §3"}, "[16]": {"settings": "alone or in combination with radiation"}, "[17]": {"settings": "single dose 50 mg/kg, brain versus plasma, read-out: enrichment in brain tissue"}, "[18]": {"settings": "read-out: brain to plasma ratio"}},
  "note": "“Also recorded” adds a separate entry of the source. Read-outs that look alike come from different tables or passages of the source.",
  "data": [
    {"smiles": "C=C1c2ccccc2NC(=O)N1Cc1ccc(S(=O)(=O)N2CCCCC2)cc1", "note": "[Compound 2, 4-Methylene-3-(4-(piperidin-1-ylsulfonyl)benzyl)-3,4-dihydroquinazolin-2(1H)-one]", "values": [
      {"measurement": "inhibition of self-renewal", "setting": "[1]", "value": "inhibits self-renewal"},
      {"measurement": "inhibition of self-renewal", "setting": "[1]; listed as compound 2", "value": "confirming activity"},
      {"measurement": "BBB penetration in vivo", "setting": "[2]", "value": "penetrates the BBB"},
      {"measurement": "BBB penetration in vivo", "setting": "[2]; listed as compound 2", "value": "confirmed the in silico prediction of BBB penetration"}
    ]},
    {"smiles": "O=C(NCc1ccc(S(=O)(=O)N2CCCCC2)cc1)n1ccc2cc(Cl)ccc21", "note": "[MHD003, 5-chloro-N-(4-(piperidin-1-ylsulfonyl)benzyl)-1H-indole-1-carboxamide]", "values": [
      {"measurement": "self renewal of glioma stem cells, % of irradiated controls", "setting": "[3]; in combination with 4 Gy, controls DMSO, p<0.0001", "value": 6, "unit": "%"},
      {"measurement": "self-renewal of HK-374 glioma stem cells in the absence of radiation (reduced to)", "setting": "[3]; unirradiated cells, one-way ANOVA", "value": 14, "unit": "%"}
    ]},
    {"smiles": "O=C(NCc1ccc(S(=O)(=O)N2CCCCC2)cc1)n1ccc2ccccc21", "note": "[MXC017, N-(4-(Piperidin-1-ylsulfonyl)benzyl)-1H-indole-1-carboxamide]", "values": [
      {"measurement": "toxicity in normal tissue cell lines", "setting": "[4]", "value": "no relevant toxicity"},
      {"measurement": "histological signs of toxicity in major organs", "setting": "[5]", "value": "did not reveal any toxicity"},
      {"measurement": "phenotype conversion of non-stem glioma cells into glioblastoma-initiating cells", "setting": "[6]; listed as MCX017", "value": "prevent spontaneous and radiation-induced phenotype conversion; also recorded: prevented radiation-induced phenotype conversion"},
      {"measurement": "p-AKT level (FLT3 target)", "setting": "[7]", "value": "down-regulation"},
      {"measurement": "p-ERK level (FLT3 target)", "setting": "[8]", "value": "down-regulation"},
      {"measurement": "cytosolic beta-catenin level (TNIK target)", "setting": "[9]", "value": "stabilization"},
      {"measurement": "median survival", "setting": "[10]; MXC-017 alone, five daily doses/week", "value": "small but significant increase"},
      {"measurement": "median survival", "setting": "[10]; single dose 10 Gy plus MXC-017 50 mg/kg, 5 days on, 2 days off, prolonged from 29 days, p<0.0001 log-rank", "value": 60, "unit": "days"},
      {"measurement": "tolerability", "setting": "[11]; 5 daily injections/week for 2 weeks", "value": "well tolerated; also recorded: well tolerated in mice with no acute clinical toxicity"},
      {"measurement": "body weight during observation time of 2 weeks", "setting": "[11]; [16]", "value": "allowed animals to gain weight"},
      {"measurement": "peak brain concentrations", "setting": "[12]", "value": "in the micromolar range"},
      {"measurement": "Kp", "setting": "[12]; [17]", "value": 4.55},
      {"measurement": "Kp", "setting": "[12]; [18]", "value": 4.55},
      {"measurement": "effect on oligodendrocytes (normal tissue) in the brain", "setting": "[13]", "value": "not effecting; also recorded: had no effect"},
      {"measurement": "Nestin-positive glioma stem cells in the tumors", "setting": "[14]", "value": "eliminated"},
      {"measurement": "number of GSCs", "setting": "[15]; MXC-017 alone, 2 weeks treatment, extreme limiting dilution assay", "value": "significantly reduced"},
      {"measurement": "frequency of glioma stem cells", "setting": "[15]; [16]", "value": "significantly reduced"},
      {"measurement": "number of sphere forming cells", "setting": "[15]; [16]", "value": "reduced the number of sphere forming cells"},
      {"measurement": "number of GSCs", "setting": "[15]; combination of radiation (single dose 10 Gy) and MXC-017", "value": "eliminated all GSCs"}
    ]},
    {"smiles": "CCN(CC)S(=O)(=O)c1ccc(CNCc2ccccc2N)cc1", "note": "[MXC021, 4-(((2-Aminobenzyl)amino)methyl)-N,N-diethylbenzenesulfonamide]", "values": [
      {"measurement": "toxicity in normal tissue cell lines", "setting": "[4]", "value": "no relevant toxicity"}
    ]},
    {"smiles": "O=C(NCc1ccc(S(=O)(=O)N2CCCCCC2)cc1)n1ccc2ccccc21", "note": "[MXC079, N-(4-(Azepan-1-ylsulfonyl)benzyl)-1H-indole-1-carboxamide]", "values": [
      {"measurement": "toxicity in normal tissue cell lines", "setting": "[4]", "value": "no relevant toxicity"},
      {"measurement": "phenotype conversion of non-stem glioma cells into glioblastoma-initiating cells", "setting": "[6]; listed as MCX079", "value": "prevent spontaneous and radiation-induced phenotype conversion; also recorded: prevented radiation-induced phenotype conversion"},
      {"measurement": "p-AKT level (FLT3 target)", "setting": "[7]", "value": "down-regulation"},
      {"measurement": "p-ERK level (FLT3 target)", "setting": "[8]", "value": "down-regulation"},
      {"measurement": "cytosolic beta-catenin level (TNIK target)", "setting": "[9]", "value": "stabilization"},
      {"measurement": "peak brain concentrations", "setting": "[12]", "value": "in the micromolar range"},
      {"measurement": "Kp", "setting": "[12]; [17]", "value": 2.63},
      {"measurement": "Kp", "setting": "[12]; [18]", "value": 2.6}
    ]}
  ]
}
